Species on record: Rattus norvegicus
Assay: Open TG-GATES - Regimen: Single
Format: toxicity, organism-based, Sprague-Dawley
Set-up: regimen Single, gender Male, age 6 weeks
Details: in vivo, po, route gavage; for gamma-GTP / ALP / ALT / AST / BUN / CRE / Ca / Cl / DBIL / GLC / IP / K / LDH / Na / PL / RALB / TBIL / TG / TP: tissue Plasma; for APTT / Bas / Eos / Fbg / Hb / Ht / Lym / MCH / MCV / Mono / Neu / PT / Plat / RBC / Ret / WBC: tissue Blood; for KIDNEY_L / KIDNEY_R / KIDNEY_TOTAL: tissue Kidney; for LIVER: tissue Liver

With NC(=O)N1c2ccccc2C=Cc2ccccc21 [CARBAMAZEPINE] the gamma-GTP (0 mg/kg, 24 h, dose level Control) was 0.8 IU/L, the TERMINAL_BW (30 mg/kg, 3 h, dose level Low) was 214.2 g and the APTT (30 mg/kg, 3 h, dose level Low) was 19.1 s. It also gave a Bas (30 mg/kg, 3 h, dose level Low) of 0%, an Eos (30 mg/kg, 3 h, dose level Low) of 1% and a Fbg (30 mg/kg, 3 h, dose level Low) of 212.2 mg/dL. It also gave a Hb (30 mg/kg, 3 h, dose level Low) of 13.3 g/dL, a Ht (30 mg/kg, 3 h, dose level Low) of 39.3% and a Lym (30 mg/kg, 3 h, dose level Low) of 78.2%. It also gave an MCH (30 mg/kg, 3 h, dose level Low) of 21.1 pg, an MCV (30 mg/kg, 3 h, dose level Low) of 62.4 fL and a Mono (30 mg/kg, 3 h, dose level Low) of 2.4%. The Neu (30 mg/kg, 3 h, dose level Low) was 17.8%, the PT (30 mg/kg, 3 h, dose level Low) was 12.2 s and the Plat (30 mg/kg, 3 h, dose level Low) was 121.8 x10_4/uL. For the same compound, the RBC (30 mg/kg, 3 h, dose level Low) was 631.2 x10_4/ul, the Ret (30 mg/kg, 3 h, dose level Low) was 6.3% and the WBC (30 mg/kg, 3 h, dose level Low) was 97.3 x10_2/uL. It also gave a KIDNEY_L (30 mg/kg, 3 h, dose level Low) of 0.9 g, a KIDNEY_R (30 mg/kg, 3 h, dose level Low) of 0.9 g and a KIDNEY_TOTAL (30 mg/kg, 3 h, dose level Low) of 1.9 g. It also gave an LIVER (30 mg/kg, 3 h, dose level Low) of 9.8 g, an ALP (30 mg/kg, 3 h, dose level Low) of 896 IU/L and an ALT (30 mg/kg, 3 h, dose level Low) of 34.8 IU/L. It also gave an AST (30 mg/kg, 3 h, dose level Low) of 66.6 IU/L, a BUN (30 mg/kg, 3 h, dose level Low) of 12.6 mg/dL and a CRE (30 mg/kg, 3 h, dose level Low) of 0.4 mg/dL. It also gave a Ca (30 mg/kg, 3 h, dose level Low) of 10.6 mg/dL, a Cl (30 mg/kg, 3 h, dose level Low) of 103.6 meq/L and a DBIL (30 mg/kg, 3 h, dose level Low) of 0.072 mg/dL. It also gave a GLC (30 mg/kg, 3 h, dose level Low) of 187.8 mg/dL, an IP (30 mg/kg, 3 h, dose level Low) of 10.1 mg/dL and a K (30 mg/kg, 3 h, dose level Low) of 3.9 meq/L. For the same compound, the LDH (30 mg/kg, 3 h, dose level Low) was 177 IU/L, the Na (30 mg/kg, 3 h, dose level Low) was 142.4 meq/L and the PL (30 mg/kg, 3 h, dose level Low) was 143.8 mg/dL. For the same compound, the RALB (30 mg/kg, 3 h, dose level Low) was 3.3 g/dL, the TBIL (30 mg/kg, 3 h, dose level Low) was 0.1 mg/dL and the TG (30 mg/kg, 3 h, dose level Low) was 51.8 mg/dL. The TP (30 mg/kg, 3 h, dose level Low) was 5.5 g/dL, the gamma-GTP (30 mg/kg, 3 h, dose level Low) was 0.6 IU/L and the TERMINAL_BW (30 mg/kg, 6 h, dose level Low) was 211.1 g. The APTT (30 mg/kg, 6 h, dose level Low) was 21.9 s, the Bas (30 mg/kg, 6 h, dose level Low) was 0% and the Eos (30 mg/kg, 6 h, dose level Low) was 1%. It also gave a Fbg (30 mg/kg, 6 h, dose level Low) of 203.8 mg/dL, a Hb (30 mg/kg, 6 h, dose level Low) of 13.3 g/dL and a Ht (30 mg/kg, 6 h, dose level Low) of 38.6%. For the same compound, the Lym (30 mg/kg, 6 h, dose level Low) was 80.6%, the MCH (30 mg/kg, 6 h, dose level Low) was 20.9 pg and the MCV (30 mg/kg, 6 h, dose level Low) was 60.9 fL. For the same compound, the Mono (30 mg/kg, 6 h, dose level Low) was 2.6%, the Neu (30 mg/kg, 6 h, dose level Low) was 14.8% and the PT (30 mg/kg, 6 h, dose level Low) was 12.9 s. It also gave a Plat (30 mg/kg, 6 h, dose level Low) of 126.6 x10_4/uL, an RBC (30 mg/kg, 6 h, dose level Low) of 634.2 x10_4/ul and a Ret (30 mg/kg, 6 h, dose level Low) of 6.1%. It also gave a WBC (30 mg/kg, 6 h, dose level Low) of 83.2 x10_2/uL, a KIDNEY_L (30 mg/kg, 6 h, dose level Low) of 1 g and a KIDNEY_R (30 mg/kg, 6 h, dose level Low) of 1 g. The KIDNEY_TOTAL (30 mg/kg, 6 h, dose level Low) was 1.9 g, the LIVER (30 mg/kg, 6 h, dose level Low) was 9.2 g and the ALP (30 mg/kg, 6 h, dose level Low) was 896 IU/L. It also gave an ALT (30 mg/kg, 6 h, dose level Low) of 34.4 IU/L, an AST (30 mg/kg, 6 h, dose level Low) of 66 IU/L and a BUN (30 mg/kg, 6 h, dose level Low) of 9.6 mg/dL. The CRE (30 mg/kg, 6 h, dose level Low) was 0.4 mg/dL, the Ca (30 mg/kg, 6 h, dose level Low) was 10.4 mg/dL and the Cl (30 mg/kg, 6 h, dose level Low) was 103.2 meq/L. The DBIL (30 mg/kg, 6 h, dose level Low) was 0.078 mg/dL, the GLC (30 mg/kg, 6 h, dose level Low) was 197.6 mg/dL and the IP (30 mg/kg, 6 h, dose level Low) was 9.6 mg/dL. For the same compound, the K (30 mg/kg, 6 h, dose level Low) was 4 meq/L, the LDH (30 mg/kg, 6 h, dose level Low) was 194 IU/L and the Na (30 mg/kg, 6 h, dose level Low) was 140.6 meq/L. For the same compound, the PL (30 mg/kg, 6 h, dose level Low) was 130.6 mg/dL, the RALB (30 mg/kg, 6 h, dose level Low) was 3.3 g/dL and the TBIL (30 mg/kg, 6 h, dose level Low) was 0.1 mg/dL. It also gave a TG (30 mg/kg, 6 h, dose level Low) of 61.6 mg/dL, a TP (30 mg/kg, 6 h, dose level Low) of 5.5 g/dL and a gamma-GTP (30 mg/kg, 6 h, dose level Low) of 0.8 IU/L. For the same compound, the TERMINAL_BW (30 mg/kg, 9 h, dose level Low) was 210.1 g, the APTT (30 mg/kg, 9 h, dose level Low) was 18.7 s and the Bas (30 mg/kg, 9 h, dose level Low) was 0%. The Eos (30 mg/kg, 9 h, dose level Low) was 0.8%, the Fbg (30 mg/kg, 9 h, dose level Low) was 216.4 mg/dL and the Hb (30 mg/kg, 9 h, dose level Low) was 13.1 g/dL. It also gave a Ht (30 mg/kg, 9 h, dose level Low) of 38.3%, a Lym (30 mg/kg, 9 h, dose level Low) of 75.2% and an MCH (30 mg/kg, 9 h, dose level Low) of 21.3 pg. For the same compound, the MCV (30 mg/kg, 9 h, dose level Low) was 62.2 fL, the Mono (30 mg/kg, 9 h, dose level Low) was 1.6% and the Neu (30 mg/kg, 9 h, dose level Low) was 21.4%. The PT (30 mg/kg, 9 h, dose level Low) was 13 s, the Plat (30 mg/kg, 9 h, dose level Low) was 113.3 x10_4/uL and the RBC (30 mg/kg, 9 h, dose level Low) was 616.2 x10_4/ul. The Ret (30 mg/kg, 9 h, dose level Low) was 6.8%, the WBC (30 mg/kg, 9 h, dose level Low) was 83.2 x10_2/uL and the KIDNEY_L (30 mg/kg, 9 h, dose level Low) was 1 g. It also gave a KIDNEY_R (30 mg/kg, 9 h, dose level Low) of 1 g, a KIDNEY_TOTAL (30 mg/kg, 9 h, dose level Low) of 2 g and an LIVER (30 mg/kg, 9 h, dose level Low) of 8.6 g. It also gave an ALP (30 mg/kg, 9 h, dose level Low) of 814.2 IU/L, an ALT (30 mg/kg, 9 h, dose level Low) of 31.4 IU/L and an AST (30 mg/kg, 9 h, dose level Low) of 62.6 IU/L. The BUN (30 mg/kg, 9 h, dose level Low) was 11.8 mg/dL, the CRE (30 mg/kg, 9 h, dose level Low) was 0.4 mg/dL and the Ca (30 mg/kg, 9 h, dose level Low) was 10.3 mg/dL. It also gave a Cl (30 mg/kg, 9 h, dose level Low) of 102 meq/L, a DBIL (30 mg/kg, 9 h, dose level Low) of 0.076 mg/dL and a GLC (30 mg/kg, 9 h, dose level Low) of 190.4 mg/dL. The IP (30 mg/kg, 9 h, dose level Low) was 9.4 mg/dL, the K (30 mg/kg, 9 h, dose level Low) was 4.1 meq/L and the LDH (30 mg/kg, 9 h, dose level Low) was 175 IU/L. The Na (30 mg/kg, 9 h, dose level Low) was 140.4 meq/L, the PL (30 mg/kg, 9 h, dose level Low) was 137.2 mg/dL and the RALB (30 mg/kg, 9 h, dose level Low) was 3.3 g/dL. The TBIL (30 mg/kg, 9 h, dose level Low) was 0.1 mg/dL, the TG (30 mg/kg, 9 h, dose level Low) was 59.6 mg/dL and the TP (30 mg/kg, 9 h, dose level Low) was 5.6 g/dL. The gamma-GTP (30 mg/kg, 9 h, dose level Low) was 0.8 IU/L, the TERMINAL_BW (30 mg/kg, 24 h, dose level Low) was 228 g and the APTT (30 mg/kg, 24 h, dose level Low) was 19.6 s. The Bas (30 mg/kg, 24 h, dose level Low) was 0%, the Eos (30 mg/kg, 24 h, dose level Low) was 1% and the Fbg (30 mg/kg, 24 h, dose level Low) was 205.8 mg/dL. It also gave a Hb (30 mg/kg, 24 h, dose level Low) of 13.4 g/dL, a Ht (30 mg/kg, 24 h, dose level Low) of 39.6% and a Lym (30 mg/kg, 24 h, dose level Low) of 78.2%. For the same compound, the MCH (30 mg/kg, 24 h, dose level Low) was 21.4 pg, the MCV (30 mg/kg, 24 h, dose level Low) was 63.3 fL and the Mono (30 mg/kg, 24 h, dose level Low) was 2.4%. The Neu (30 mg/kg, 24 h, dose level Low) was 18%, the PT (30 mg/kg, 24 h, dose level Low) was 12.1 s and the Plat (30 mg/kg, 24 h, dose level Low) was 118 x10_4/uL. It also gave an RBC (30 mg/kg, 24 h, dose level Low) of 626.4 x10_4/ul, a Ret (30 mg/kg, 24 h, dose level Low) of 5.8% and a WBC (30 mg/kg, 24 h, dose level Low) of 103.7 x10_2/uL. The KIDNEY_L (30 mg/kg, 24 h, dose level Low) was 1.1 g, the KIDNEY_R (30 mg/kg, 24 h, dose level Low) was 1.1 g and the KIDNEY_TOTAL (30 mg/kg, 24 h, dose level Low) was 2.1 g. For the same compound, the LIVER (30 mg/kg, 24 h, dose level Low) was 11.2 g, the ALP (30 mg/kg, 24 h, dose level Low) was 892.6 IU/L and the ALT (30 mg/kg, 24 h, dose level Low) was 34 IU/L. For the same compound, the AST (30 mg/kg, 24 h, dose level Low) was 64.6 IU/L, the BUN (30 mg/kg, 24 h, dose level Low) was 16.2 mg/dL and the CRE (30 mg/kg, 24 h, dose level Low) was 0.4 mg/dL. The Ca (30 mg/kg, 24 h, dose level Low) was 10.6 mg/dL, the Cl (30 mg/kg, 24 h, dose level Low) was 102.4 meq/L and the DBIL (30 mg/kg, 24 h, dose level Low) was 0.1 mg/dL. For the same compound, the GLC (30 mg/kg, 24 h, dose level Low) was 214 mg/dL, the IP (30 mg/kg, 24 h, dose level Low) was 7.7 mg/dL and the K (30 mg/kg, 24 h, dose level Low) was 4.2 meq/L. It also gave an LDH (30 mg/kg, 24 h, dose level Low) of 198.8 IU/L, a Na (30 mg/kg, 24 h, dose level Low) of 140.2 meq/L and a PL (30 mg/kg, 24 h, dose level Low) of 151.2 mg/dL. It also gave an RALB (30 mg/kg, 24 h, dose level Low) of 3.3 g/dL, a TBIL (30 mg/kg, 24 h, dose level Low) of 0.1 mg/dL and a TG (30 mg/kg, 24 h, dose level Low) of 99.8 mg/dL. For the same compound, the TP (30 mg/kg, 24 h, dose level Low) was 5.5 g/dL.

Reference: ChEMBL document CHEMBL3885861, “Open TG-GATES”
